Measured values as given in the supplement of paper PMC8671470.
± gives the standard deviation of the averaged measurements.

How the values were obtained:
HL-60 [1] = assay: area under dose-response curve (viability, 1 nM-10 uM) (fraction (0-1)); higher = more sensitive; conditions: 72 h
In short: (§1)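 Area under the curve, where listed, was derived from four-parameter log-logistic fits with drc and PharmacoGx. These fits used CellTiter-Glo viability from HL-60 cells in RPMI 1640 with 10% FBS, normalised to DMSO wells and wells holding 10 μM proteasome inhibitor. The full library was rescreened on 384-well plates in duplicate at five tenfold concentrations, 1–10,000 nM, with DMSO or 100 nM of one of three metabolic inhibitors, for 72 h at 37 °C, 5% CO2.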

HL-60 [2] = assay: cell viability (% survival relative to DMSO control); higher = less cytotoxic; conditions: 72 h
In short: as §1

[3] = co-treatment: GSK2194069 100 nM
[4] = co-treatment: pictilisib 100 nM
[5] = 0.001 µM, co-treatment: AZD3965 100 nM
[6] = 0.001 µM, co-treatment: DMSO vehicle
[7] = 0.001 µM, co-treatment: GSK2194069 100 nM
[8] = 0.001 µM, co-treatment: pictilisib 100 nM
[9] = 0.01 µM, co-treatment: AZD3965 100 nM
[10] = 0.01 µM, co-treatment: DMSO vehicle
[11] = 0.01 µM, co-treatment: GSK2194069 100 nM
[12] = 0.01 µM, co-treatment: pictilisib 100 nM
[13] = 0.1 µM, co-treatment: AZD3965 100 nM
[14] = 0.1 µM, co-treatment: DMSO vehicle
[15] = 0.1 µM, co-treatment: GSK2194069 100 nM
[16] = 0.1 µM, co-treatment: pictilisib 100 nM
[17] = 1 µM, co-treatment: AZD3965 100 nM
[18] = 1 µM, co-treatment: DMSO vehicle
[19] = 1 µM, co-treatment: GSK2194069 100 nM
[20] = 1 µM, co-treatment: pictilisib 100 nM
[21] = 10 µM, co-treatment: AZD3965 100 nM
[22] = 10 µM, co-treatment: DMSO vehicle
[23] = 10 µM, co-treatment: GSK2194069 100 nM
[24] = 10 µM, co-treatment: pictilisib 100 nM

Row | SMILES | area under dose-response curve (HL-60 [1]; co-treatment: AZD3965 100 nM) | area under dose-response curve (HL-60 [1]; co-treatment: DMSO vehicle) | area under dose-response curve (HL-60 [1]; [3]) | area under dose-response curve (HL-60 [1]; [4]) | cell viability (HL-60 [2]; [5]) [%] | cell viability (HL-60 [2]; [6]) [%] | cell viability (HL-60 [2]; [7]) [%] | cell viability (HL-60 [2]; [8]) [%] | cell viability (HL-60 [2]; [9]) [%] | cell viability (HL-60 [2]; [10]) [%] | cell viability (HL-60 [2]; [11]) [%] | cell viability (HL-60 [2]; [12]) [%] | cell viability (HL-60 [2]; [13]) [%] | cell viability (HL-60 [2]; [14]) [%] | cell viability (HL-60 [2]; [15]) [%] | cell viability (HL-60 [2]; [16]) [%] | cell viability (HL-60 [2]; [17]) [%] | cell viability (HL-60 [2]; [18]) [%] | cell viability (HL-60 [2]; [19]) [%] | cell viability (HL-60 [2]; [20]) [%] | cell viability (HL-60 [2]; [21]) [%] | cell viability (HL-60 [2]; [22]) [%] | cell viability (HL-60 [2]; [23]) [%] | cell viability (HL-60 [2]; [24]) [%]
1 | CCCCCCCNC=O [N-Heptyl-Formamide] | < 0.0301 | < 0.0301 | < 0.0301 | < 0.0301 | 104.63 ± 0.079 | 101.3 ± 0.22 | 99.7 ± 2.1 | 99.8 ± 14 | 106 ± 12 | 78.3 ± 35 | 103 ± 2.5 | 108 ± 15 | 98 ± 6.2 | 98.6 ± 5 | 99.6 ± 2.1 | 78.6 ± 23 | 95 ± 12 | 97.7 ± 4.5 | 97.7 ± 8.2 | 102 ± 4.4 | 97.3 ± 4.2 | 101 ± 2.9 | 94 ± 2.8 | 100 ± 6.2
2 | O=c1oc2c(cc1O)oc(=O)c1cc(O)c(O)c(O)c12 [Galloflavin] | < 0.0301 | < 0.0301 | < 0.0301 | < 0.0301 | 81.9 ± 2.5 | 102 ± 1.5 | 92.6 ± 11 | 109 ± 8.3 | 97.2 ± 2.5 | 84.8 ± 23 | 84.7 ± 13 | 93.7 ± 1.9 | 110 ± 11 | 104 ± 1.4 | 104 ± 3.8 | 94.13 ± 0.21 | 112 ± 12 | 109 ± 4.7 | 105 ± 8 | 107 ± 11 | 99.6 ± 2.8 | 99.28 ± 0.39 | 96.52 ± 0.27 | 98.54 ± 0.6
3 | C#CCN[C@@H]1CCc2ccccc21 [Rasagiline] | < 0.0301 | < 0.0301 | < 0.0301 | < 0.0301 | 102 ± 5.7 | 101 ± 1.1 | 105 ± 1.6 | 89.6 ± 3.1 | 96.6 ± 9.6 | 102 ± 4.3 | 107 ± 4.2 | 87.5 ± 12 | 100 ± 11 | 102 ± 1.8 | 100 ± 6.3 | 103 ± 14 | 97.1 ± 1.7 | 100.1 ± 0.11 | 102 ± 6.4 | 95.6 ± 7.2 | 99.9 ± 1.6 | 95.4 ± 3 | 99.9 ± 4 | 102 ± 1.2
4 | O=NN(CCCl)C(=O)NCCCl [Carmustine] | < 0.0301 | < 0.0301 | < 0.0301 | < 0.0301 | 95.3 ± 1.7 | 96.8 ± 3.4 | 89.9 ± 1.6 | 86.1 ± 8.4 | 95 ± 12 | 102 ± 6 | 97.4 ± 11 | 83.1 ± 1.1 | 99.5 ± 3.9 | 100.48 ± 0.1 | 98.9 ± 2.9 | 110 ± 7.2 | 98.8 ± 5.9 | 97.8 ± 1 | 97.5 ± 2.7 | 93.7 ± 4.2 | 100.8 ± 0.83 | 105 ± 3.5 | 104 ± 9.1 | 118 ± 24
5 | CC(C)(F)C[C@H](N[C@@H](c1ccc(-c2ccc(S(C)(=O)=O)cc2)cc1)C(F)(F)F)C(=O)NC1(C#N)CC1 [Odanacatib] | < 0.0301 | < 0.0301 | < 0.0301 | < 0.0301 | 99.32 ± 0.47 | 95.8 ± 6.7 | 80.8 ± 23 | 66.7 ± 44 | 95.1 ± 11 | 98.4 ± 1.8 | 89.4 ± 3.8 | 112 ± 12 | 102 ± 1.2 | 100 ± 1.1 | 97.1 ± 2.8 | 94.9 ± 22 | 96.26 ± 0.29 | 95 ± 8.3 | 90 ± 7.7 | 96.43 ± 0.2 | 101 ± 3.8 | 97.6 ± 0.99 | 89.3 ± 6 | 90 ± 15
6 | Cl.NC1=CCCN1Cc1nc(O)nc(O)c1Cl [Tipiracil] | < 0.0301 | < 0.0301 | < 0.0301 | < 0.0301 | 98.3 ± 4.6 | 97.2 ± 11 | 98.7 ± 1.1 | 93 ± 6.2 | 102 ± 3.3 | 94.3 ± 3.1 | 97.9 ± 6.2 | 100 ± 9.1 | 99.7 ± 1.8 | 102 ± 7.2 | 97.8 ± 1.5 | 93.7 ± 2 | 101 ± 1.4 | 99.34 ± 0.1 | 98.6 ± 4.8 | 97 ± 1.6 | 99.5 ± 5.9 | 100.1 ± 0.34 | 88 ± 10 | 86.7 ± 19
7 | Cl.OC[C@H]1NC[C@H](O)[C@@H](O)[C@H]1O [Migalastat] | < 0.0301 | < 0.0301 | < 0.0301 | < 0.0301 | 106 ± 1.8 | 103 ± 1.2 | 106 ± 1.1 | 102 ± 4.4 | 108 ± 2.8 | 103 ± 8.1 | 110 ± 3.4 | 112 ± 3.5 | 102.1 ± 0.12 | 96.5 ± 2.1 | 104 ± 6 | 99.4 ± 5.2 | 106 ± 2.9 | 100 ± 1.6 | 103 ± 8.2 | 106 ± 5.2 | 102 ± 6.1 | 95.4 ± 4.5 | 94.79 ± 0.12 | 94.1 ± 11
8 | OCCN(CCO)c1nc(N2CCCCC2)c2nc(N(CCO)CCO)nc(N3CCCCC3)c2n1 [Dipyridamole] | < 0.0301 | < 0.0301 | – | < 0.0301 | 95.7 ± 8 | 101 ± 5 | 94.2 ± 5.8 | 90.6 ± 21 | 98.9 ± 3.2 | 97.54 ± 0.47 | 94.44 ± 0.53 | 101 ± 8.1 | 100.7 ± 0.65 | 107 ± 0.53 | 106 ± 3.8 | 105.3 ± 0.23 | 102 ± 6.6 | 100 ± 7 | 82 ± 9 | 99.7 ± 18 | 106 ± 4.1 | 106 ± 3.3 | 64 ± 5.3 | 97.4 ± 1.1
9 | CN(C)C(=N)NC(=N)N [Metformin] | < 0.0301 | < 0.0301 | < 0.0301 | < 0.0301 | 94.9 ± 4 | 101.9 ± 0.7 | 98.7 ± 11 | 92 ± 24 | 99 ± 5.4 | 95.8 ± 5.8 | 98 ± 11 | 111 ± 21 | 103 ± 2.1 | 102.3 ± 0.63 | 109 ± 9.2 | 120 ± 10 | 94.9 ± 1.5 | 95.9 ± 1.7 | 94 ± 3.7 | 96.7 ± 6.3 | 100 ± 2.3 | 96.73 ± 0.68 | 106 ± 8.9 | 104 ± 14
10 | O=[As]O[As]=O (centres undefined) [Arsenic trioxide] | < 0.0301 | < 0.0301 | < 0.0301 | < 0.0301 | 103 ± 2.1 | 98.8 ± 1.9 | 102 ± 5.6 | 94.24 ± 0.0034 | 101.5 ± 0.8 | 100 ± 1.3 | 99.1 ± 4.6 | 101 ± 4.8 | 98.7 ± 1.7 | 97.29 ± 0.59 | 98.8 ± 2.5 | 93.6 ± 4.6 | 102 ± 4 | 100.5 ± 0.47 | 99.11 ± 0.97 | 98.5 ± 6.7 | 82.7 ± 1.2 | 96.7 ± 6.6 | 87.09 ± 0.7 | 63.4 ± 0.69
